In ChEMBL document CHEMBL1201862, “PubChem BioAssay data set” (2004) one finds IC50 and EC50 data, which are given here for 8 compounds.

The target of experiment [1] is T1, Orexin receptor type 2 (Homo sapiens, UniProt O43614).
T1 sequence (O43614 whole entry): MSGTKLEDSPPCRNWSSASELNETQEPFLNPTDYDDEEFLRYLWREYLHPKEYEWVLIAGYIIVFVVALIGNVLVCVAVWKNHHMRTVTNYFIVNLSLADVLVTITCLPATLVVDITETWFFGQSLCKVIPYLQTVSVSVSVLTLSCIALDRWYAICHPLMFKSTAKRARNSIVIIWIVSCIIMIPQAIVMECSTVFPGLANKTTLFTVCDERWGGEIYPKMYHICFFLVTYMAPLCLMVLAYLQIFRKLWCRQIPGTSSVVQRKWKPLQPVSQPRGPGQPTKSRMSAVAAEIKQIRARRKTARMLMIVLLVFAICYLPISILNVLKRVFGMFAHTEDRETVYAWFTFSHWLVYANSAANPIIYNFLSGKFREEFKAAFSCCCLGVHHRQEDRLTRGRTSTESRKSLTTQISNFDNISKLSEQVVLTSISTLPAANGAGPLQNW
The experiment in a line: Counterscreen assay for antagonists of the orexin 1 receptor (OX1R; HCRTR1): Fluorescence-based cell-based dose response assay for antagonists of the orexin 2 receptor (OX2R; HCRTR2), run by assay provider. In kind it is functional. A general note: A counterscreen serves to expose hits that act by an unwanted route or on another target.

A further experiment deals with CHO-K1. Kind of experiment: Counterscreen for antagonists of the orexin 1 receptor (OX1R; HCRTR1): Homogeneous time resolved fluorescence (HTRF)-based cell-based dose response assay to identify antagonists of the parental CHO-K1 cell line. [Related pubchem assays (depositor defined):AID434989, AID435008, AID463079, AID485270, AID492963, AID492964, AID492965, AID493232, AID504699, AID504701]. The format is functional. The note with it: Cricetulus griseus.

The test system of experiment [2] is Streptococcus sp. 'group A'. The experiment in a line: growth inhibition of control SK(-) GAS strain, dose response, counter-screen for streptokinase expression inhibitor project, luminescence, kanamycin, BacTiterGlo, confirmation (AID 1900). The format is functional, organism-based.
A further experiment deals with Streptococcus. Kind of experiment: Group A Streptococcus viability loss, dose response, counter-screen for streptokinase expression inhibitor project, luminescence, BacTiterGlo (AID 1915).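 Note: potency for reduction of bacterial viability or growth.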 In kind it is functional, organism-based.
The target of experiment [3] is T1, Orexin receptor type 2. Kind of experiment: Counterscreen assay for antagonists of the orexin 1 receptor (OX1R; HCRTR1): Homogeneous Time Resolved Fluorescence (HTRF)-based cell-based dose response assay for antagonists of the orexin 2 receptor (OX2R; HCRTR2), run by assay provider. In kind it is functional.
In experiment [4] the target is T2, Orexin/Hypocretin receptor type 1 (Homo sapiens, UniProt O43613).
T2 sequence (O43613 whole entry): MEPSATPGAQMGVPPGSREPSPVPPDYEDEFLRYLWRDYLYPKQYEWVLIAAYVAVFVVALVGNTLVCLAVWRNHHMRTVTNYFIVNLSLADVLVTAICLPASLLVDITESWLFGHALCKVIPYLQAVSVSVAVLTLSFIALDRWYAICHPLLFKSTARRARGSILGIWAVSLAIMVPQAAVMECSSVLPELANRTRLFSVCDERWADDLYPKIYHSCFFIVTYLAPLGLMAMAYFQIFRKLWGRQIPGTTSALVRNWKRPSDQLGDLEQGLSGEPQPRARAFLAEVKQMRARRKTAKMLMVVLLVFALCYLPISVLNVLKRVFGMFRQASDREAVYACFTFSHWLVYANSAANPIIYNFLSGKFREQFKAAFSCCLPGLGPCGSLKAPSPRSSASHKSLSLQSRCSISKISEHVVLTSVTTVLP
Kind of experiment: Homogeneous Time Resolved Fluorescence (HTRF)-based cell-based high throughput dose response assay for antagonists of the orexin 1 receptor (OX1R; HCRTR1). [Related pubchem assays (depositor defined):AID434989, AID435008, AID463079, AID485270, AID492963, AID492964, AID492965, AID493232, AID504717, AID504718]. The format is functional. (In TR-FRET formats the signal depends on donor and acceptor labels being close together.)

Experiment [5] can be described thus: Counterscreen for antagonists of the orexin 1 receptor (OX1R; HCRTR1): Fluorescence-based cell-based high throughput dose response assay to identify antagonists of the parental CHO cell line. [Related pubchem assays (depositor defined):AID434989, AID435008, AID463079, AID485270, AID492963, AID492964, AID492965, AID493232, AID504699, AID504701]. In kind it is functional.

Experiment [6] deals with T2, Orexin/Hypocretin receptor type 1. The experiment in a line: Fluorescence-based cell-based high throughput dose response assay for antagonists of the orexin 1 receptor (OX1R; HCRTR1). [Related pubchem assays (depositor defined):AID434989, AID435008, AID463079, AID485270, AID492963, AID492964, AID492965, AID493232, AID504717, AID504718]. The format is functional.
The target of the next experiment is T3, Streptokinase A (Streptococcus pyogenes serotype M1, UniProt P10520).
T3 sequence (P10520 whole entry): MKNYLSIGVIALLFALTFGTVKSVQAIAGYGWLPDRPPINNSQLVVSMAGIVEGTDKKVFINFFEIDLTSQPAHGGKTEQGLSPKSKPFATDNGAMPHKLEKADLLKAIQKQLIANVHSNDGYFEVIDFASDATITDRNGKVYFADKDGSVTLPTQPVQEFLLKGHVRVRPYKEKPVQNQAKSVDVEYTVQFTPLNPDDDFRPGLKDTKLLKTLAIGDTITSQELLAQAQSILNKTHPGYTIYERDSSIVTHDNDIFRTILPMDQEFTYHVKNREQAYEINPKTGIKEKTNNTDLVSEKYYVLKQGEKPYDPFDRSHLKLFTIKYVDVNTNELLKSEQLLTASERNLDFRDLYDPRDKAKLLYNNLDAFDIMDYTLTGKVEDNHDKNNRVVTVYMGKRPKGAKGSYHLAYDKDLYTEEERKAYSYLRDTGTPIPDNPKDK
Kind of experiment: S. pyogenes streptokinase expression inhibitors, potency, dose response, plasminogen activation absorbance, OD405 (AID 1914).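 Note: secreted streptokinase activity via plasminogen activation per viability signal from cell pellet.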 The format is functional, Streptococcus pyogenes M1 GAS.

Another experiment addresses Melanocortin receptor 4 (Homo sapiens, UniProt P32245). The experiment in a line: MC4R antagonist potency on cAMP, dose response, cell-based, TR-FRET, biased antagonists (AID 602298).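 Note: antagonist potency against agonist-stimulated cAMP production.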 In kind it is functional.
Experiment [7] in a line: nonselective inhibitors of cellular cAMP signaling, dose response, counter-screen for MC4R biased antagonist project, cell-based, TR-FRET cAMP detection (AID 602305).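 Note: U2OS cells stimulated with forskolin near its EC80 as the cAMP inducer; potency is for inhibition of forskolin-stimulated cAMP signaling.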 The format is functional.
The target in experiment [8] is Benomyl/methotrexate resistance protein (Candida albicans, UniProt P28873). Kind of experiment: CaMdr1 efflux pump inhibitor potency, dose response, singleplex, Cherry Pick1 hits (AID 588608). In kind it is functional.
Benomyl/methotrexate resistance protein, sequence (P28873 whole entry): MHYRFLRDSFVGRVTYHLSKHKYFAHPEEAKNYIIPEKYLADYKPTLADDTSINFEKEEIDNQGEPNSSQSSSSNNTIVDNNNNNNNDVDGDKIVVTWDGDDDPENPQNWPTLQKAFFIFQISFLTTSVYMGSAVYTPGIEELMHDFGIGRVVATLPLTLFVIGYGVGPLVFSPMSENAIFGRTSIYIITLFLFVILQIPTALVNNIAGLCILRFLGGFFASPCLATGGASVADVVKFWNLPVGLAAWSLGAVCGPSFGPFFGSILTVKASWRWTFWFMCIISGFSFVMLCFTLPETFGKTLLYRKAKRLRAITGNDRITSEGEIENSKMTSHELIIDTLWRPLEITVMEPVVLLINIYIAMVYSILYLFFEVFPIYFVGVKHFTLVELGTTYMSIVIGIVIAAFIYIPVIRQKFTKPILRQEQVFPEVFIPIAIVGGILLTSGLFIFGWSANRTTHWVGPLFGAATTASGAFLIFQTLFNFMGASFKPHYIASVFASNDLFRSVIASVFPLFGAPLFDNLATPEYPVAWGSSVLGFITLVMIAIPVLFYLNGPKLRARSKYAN
Experiment [9] addresses Melanin-concentrating hormone receptor 1 (Homo sapiens, UniProt Q99705). The experiment in a line: Late-stage fluorescence-based counterscreen for antagonists of the G-protein coupled receptor 7 (GPR7): cell-based dose response assay to identify antagonists of the melanin-concentrating hormone receptor 1 (MCHR1) Set 5. In kind it is functional.
The target of experiment [10] is T4, Neuropeptides B/W receptor type 1 (Homo sapiens, UniProt P48145).
T4 sequence (P48145 whole entry): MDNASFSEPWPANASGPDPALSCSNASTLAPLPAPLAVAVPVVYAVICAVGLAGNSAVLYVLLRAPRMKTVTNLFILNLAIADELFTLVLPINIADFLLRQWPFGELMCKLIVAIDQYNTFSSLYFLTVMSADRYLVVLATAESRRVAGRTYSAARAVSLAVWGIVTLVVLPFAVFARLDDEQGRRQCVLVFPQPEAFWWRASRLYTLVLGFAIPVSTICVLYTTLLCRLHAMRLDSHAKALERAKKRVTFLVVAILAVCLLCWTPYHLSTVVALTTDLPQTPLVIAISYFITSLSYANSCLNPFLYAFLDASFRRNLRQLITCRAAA
The experiment in a line: GPR7 antagonist potency, late-stage follow-up, cell-based, fluorescence, dose response, set 5 (AID 588566). The format is functional.

Experiment [11] deals with T5, Apoptotic protease-activating factor 1 (Homo sapiens, UniProt O14727).
T5 sequence (O14727 whole entry): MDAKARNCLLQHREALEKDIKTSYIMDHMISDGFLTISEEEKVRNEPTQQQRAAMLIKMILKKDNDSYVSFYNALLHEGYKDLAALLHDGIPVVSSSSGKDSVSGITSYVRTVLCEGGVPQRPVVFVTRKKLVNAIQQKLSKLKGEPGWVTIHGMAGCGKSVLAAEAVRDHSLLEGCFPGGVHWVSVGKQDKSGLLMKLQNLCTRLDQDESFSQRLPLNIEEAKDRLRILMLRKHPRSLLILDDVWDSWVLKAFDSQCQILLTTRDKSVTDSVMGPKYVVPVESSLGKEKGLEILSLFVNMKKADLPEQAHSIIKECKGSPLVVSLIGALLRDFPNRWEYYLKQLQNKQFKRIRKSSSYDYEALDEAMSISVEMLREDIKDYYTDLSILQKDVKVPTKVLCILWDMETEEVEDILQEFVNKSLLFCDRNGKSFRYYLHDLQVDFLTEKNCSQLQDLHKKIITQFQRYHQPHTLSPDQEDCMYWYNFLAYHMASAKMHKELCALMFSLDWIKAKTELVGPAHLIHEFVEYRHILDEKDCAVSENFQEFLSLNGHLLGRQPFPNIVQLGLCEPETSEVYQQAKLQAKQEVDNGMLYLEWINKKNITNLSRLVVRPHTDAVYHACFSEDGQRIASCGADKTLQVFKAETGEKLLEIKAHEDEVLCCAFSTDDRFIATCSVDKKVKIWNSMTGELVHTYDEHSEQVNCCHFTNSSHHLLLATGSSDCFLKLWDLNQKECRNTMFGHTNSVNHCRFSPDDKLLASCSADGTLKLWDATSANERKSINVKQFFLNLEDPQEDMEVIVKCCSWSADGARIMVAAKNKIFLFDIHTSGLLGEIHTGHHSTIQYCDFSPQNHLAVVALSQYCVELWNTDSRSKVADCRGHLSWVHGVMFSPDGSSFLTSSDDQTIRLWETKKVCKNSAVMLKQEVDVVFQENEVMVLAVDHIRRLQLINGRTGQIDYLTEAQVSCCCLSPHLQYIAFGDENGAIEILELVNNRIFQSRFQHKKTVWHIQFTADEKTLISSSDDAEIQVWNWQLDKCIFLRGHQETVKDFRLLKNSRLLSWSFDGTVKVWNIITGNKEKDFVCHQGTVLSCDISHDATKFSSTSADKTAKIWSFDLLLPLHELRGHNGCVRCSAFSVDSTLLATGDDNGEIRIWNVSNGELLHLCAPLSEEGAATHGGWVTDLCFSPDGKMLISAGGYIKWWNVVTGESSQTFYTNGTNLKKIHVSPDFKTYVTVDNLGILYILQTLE
Kind of experiment: SAR analysis of small molecule Activators of Apaf-1 in a Fluorescent assay. In kind it is functional. As to conditions: read-out: EC50_Mean.

The target of experiment [12] is T6, Interleukin-8 (Homo sapiens, UniProt P10145). Kind of experiment: Dose Response confirmation of uHTS small molecule hits for cystic fibrosis induced NFkb Inhibitors in a PAF-induced IL8 counterscreen. As to conditions: read-out: IC50_Mean. In kind it is functional.
T6 sequence (P10145 whole entry): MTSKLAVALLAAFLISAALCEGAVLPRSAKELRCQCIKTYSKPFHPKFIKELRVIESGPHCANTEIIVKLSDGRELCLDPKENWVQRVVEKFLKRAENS
Experiment [13] deals with T6, Interleukin-8. Kind of experiment: Dose Response confirmation of uHTS small molecule hits for cystic fibrosis induced NFkb Inhibitors in a TNFa-induced IL8 counterscreen. The format is functional. As to conditions: read-out: IC50_Mean.

The structures appear in SMILES notation. Active and inactive are the calls of the source. A value given as a limit tells only on which side of the number the result lay.
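Throughout, for EC50 Mean: caspase-3 cleavage of fluorogenic Rh110 DEVD substrate downstream of apoptosome activation.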

Melanin-concentrating hormone receptor 1, sequence (Q99705 whole entry): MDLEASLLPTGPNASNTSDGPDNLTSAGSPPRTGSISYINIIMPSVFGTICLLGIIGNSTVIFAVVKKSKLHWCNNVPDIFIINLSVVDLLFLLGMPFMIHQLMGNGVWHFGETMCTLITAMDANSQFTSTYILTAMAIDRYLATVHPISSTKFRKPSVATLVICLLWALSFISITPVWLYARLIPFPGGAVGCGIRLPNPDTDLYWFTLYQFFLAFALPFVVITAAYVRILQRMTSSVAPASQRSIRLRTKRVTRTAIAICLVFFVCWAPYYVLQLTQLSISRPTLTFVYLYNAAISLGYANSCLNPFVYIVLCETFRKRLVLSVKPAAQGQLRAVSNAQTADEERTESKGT
Melanocortin receptor 4, sequence (P32245 whole entry): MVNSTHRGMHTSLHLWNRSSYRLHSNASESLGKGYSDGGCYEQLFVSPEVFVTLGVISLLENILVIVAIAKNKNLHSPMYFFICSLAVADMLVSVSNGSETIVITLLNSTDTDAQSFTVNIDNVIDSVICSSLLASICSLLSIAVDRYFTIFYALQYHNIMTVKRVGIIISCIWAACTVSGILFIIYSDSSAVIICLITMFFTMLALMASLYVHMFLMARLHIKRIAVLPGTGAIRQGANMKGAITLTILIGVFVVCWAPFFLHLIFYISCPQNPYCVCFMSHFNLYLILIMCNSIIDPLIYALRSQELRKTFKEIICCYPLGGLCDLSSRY

For the compound `Cc1cnc(NC(=O)c2cc3c(C)nn(-c4ccccc4)c3s2)s1`, the IC50 on Orexin receptor type 2 [1] is 60.4 µM (inactive); in the experiment on CHO-K1, > 66.2 µM (inactive); on Orexin receptor type 2 [3], > 50 µM (inactive); in experiment [4] it was 2.21 µM (active); in experiment [5], > 49.7 µM (inactive); in experiment [6], 2.37 µM (active). In addition, the results for the EC50 (in experiment [2]; in the experiment on Streptococcus; at Streptokinase A) were 2.5 µM (active), > 150 µM (not active) and > 150 µM (not active), respectively.
With `O=S(=O)(c1ccc(Br)c2nsnc12)N1CCOCC1`, the IC50 (at Melanocortin receptor 4; in experiment [7]) was > 64.6 µM (inactive) throughout.
Regarding `COc1ccccc1-c1sc2ccccc2c1-c1ccc(OCCN2CCCCC2)cc1`, in experiment [8], the EC50 is 18.9 µM (active).
As for `COc1ccc([C@@H]2CC=C(C(=O)O)[C@H](c3cccc(Cl)c3)N2S(=O)(=O)c2ccccc2C)cc1`, the IC50 at Orexin receptor type 2 [1] was 17.1 µM (inactive); in the experiment on CHO-K1 it was > 66.2 µM (inactive); at Orexin receptor type 2 [3] it was 3.32 µM (active); in experiment [4], 1.09 µM (active); in experiment [5], > 49.7 µM (inactive); in experiment [6] it was 14.6 µM (inactive).
Take `COc1ccc(Oc2c(Cl)cnn(C(C)c3ccccc3C)c2=O)cc1` (stereo not given): the IC50 is 9.16 µM (active) in experiment [9] and 8.01 µM (active) in [10].
For `CC1(C)CC2CC(C)(CN2C(=O)C2CC(c3ccc(F)cc3)=NO2)C1` (stereo not given), the EC50 in experiment [11] is > 100 µM (inactive).
As to `CCOC(=O)C(C(=O)OCC)c1c(Cl)cnn(Cc2cccc3ccccc23)c1=O`, the IC50 was 4.03 µM (active) in [9] and 3.77 µM (active) in [10].
As to `c1ccc2c(-c3ccc4nncn4c3)cncc2c1`, the results for the IC50 on Interleukin-8 [12] and at Interleukin-8 [13] were 12.4 µM (inactive) and > 79 µM (inactive), respectively.
